Target: T1, human Ox2R (Homo sapiens, UniProt O43614)
T1 construct: The gene encoding hOx2R was subcloned into the expression plasmid pcDNA5/FRT/TO; expressed in transfected cells; host or cells: CHO Flp-In cells (pcDNA5/FRT/TO with pOG44 Flp recombinase vector, hygromycin B selection)
T1 sequence (O43614 1-444): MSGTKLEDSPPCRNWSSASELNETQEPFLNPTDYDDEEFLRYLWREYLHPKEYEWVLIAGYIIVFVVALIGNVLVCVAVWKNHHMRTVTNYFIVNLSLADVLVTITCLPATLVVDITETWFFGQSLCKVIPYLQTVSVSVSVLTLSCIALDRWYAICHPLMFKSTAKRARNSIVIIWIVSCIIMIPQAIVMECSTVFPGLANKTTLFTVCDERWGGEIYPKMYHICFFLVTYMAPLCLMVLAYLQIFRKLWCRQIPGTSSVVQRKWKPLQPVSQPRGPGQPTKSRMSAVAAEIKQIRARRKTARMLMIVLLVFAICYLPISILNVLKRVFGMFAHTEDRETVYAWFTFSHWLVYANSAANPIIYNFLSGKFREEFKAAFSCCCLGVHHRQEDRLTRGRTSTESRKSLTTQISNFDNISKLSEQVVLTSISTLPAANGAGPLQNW
Test: Measurement of OX2R agonist activity (cell-based calcium release assay)
Conditions: hOx2R-CHO Flp-In cells, n≥2 tests; for EC50: intracellular calcium, read-out: EC50; for Emax: read-out: Emax (%)
Procedure, shortened: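 CHO Flp-In cells stably expressing human Ox2R, dye-loaded 1 h at 37 °C in HBSS/20 mM HEPES pH 7.4 with 2.5 mM probenecid and 10 mM CaCl2, then stimulated with compound.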

[1] = normalized to assay buffer (0%) and 10 μM Danavorexton (100%)

EC50 [nM]	Emax [1] [%]	Compound	Emax (%) [1] [%]
0.62	97	CS(=O)(=O)N[C@H]1CC[C@@]2(Cc3ccc(F)c(c3)-c3ccc(F)c(F)c3OCc3coc2n3)C1 [Example 14, N-[(1′S,14R)-5,6,19-trifluorospiro[8,12-dioxa-21-azatetracyclo[14.3.1.110,13.02,7]henicosa-1(19),2,4,6,10,13(21),16(20),17-octaene-14,3′-cyclopentane]-1′-yl]methanesulfonamide]	–
1.5	98	Cc1oc2nc1COc1ccccc1-c1cccc(c1)C[C@@]21CC[C@H](NS(C)(=O)=O)C1 [Example 68, N-[(1′S,14R)-11-methylspiro[8,12-dioxa-21-azatetracyclo[14.3.1.110,13.02,7]henicosa-1(19),2,4,6,10,13(21),16(20),17-octaene-14,3′-cyclopentane]-1′-yl]methanesulfonamide]	–
3.7	100	CS(=O)(=O)N[C@H]1CC[C@@]2(Cc3ccc(F)c(c3)-c3cccc(F)c3OCc3ccnc2n3)C1 [Example 82, N-[(1′S,15R)-6,20-difluorospiro[8-oxa-13,22-diazatetracyclo[15.3.1.110,14.02,7]docosa-1(20),2(7),3,5,10,12,14(22),17(21),18-nonaene-15,3′-cyclopentane]-1′-yl]methanesulfonamide]	–
2.6	100	Cn1cc2c(n1)OCc1coc(n1)[C@]1(CC[C@H](NS(C)(=O)=O)C1)Cc1cc-2c(F)cc1F [Example 83, N-[(1′S,13R)-16,18-difluoro-4-methyl-spiro[7,11-dioxa-4,5,20-triazatetracyclo[13.3.1.19,12.02,6]icosa-1(18),2,5,9,12(20),15(19),16-heptaene-13,3′-cyclopentane]-1′-yl]methanesulfonamide]	–
0.28	98	CS(=O)(=O)N[C@H]1CC[C@@]2(Cc3cc(c(F)cc3Cl)-c3cccc(F)c3OCc3coc2n3)C1 [Example 32, N-[(1′S,14R)-17-chloro-6,19-difluoro-spiro[8,12-dioxa-21-azatetracyclo[14.3.1.110,13.02,7]henicosa-1(19),2,4,6,10,13(21),16(20),17-octaene-14,3′-cyclopentane]-1′-yl]methanesulfonamide]	–
0.19	110	O=S(=O)(N[C@H]1CC[C@@]2(Cc3ccc(F)c(c3)-c3cccc(F)c3OCc3coc2n3)C1)C(F)(F)F [Example 114, N-[(1′S,14R)-6,19-difluorospiro[8,12-dioxa-21-azatetracyclo[14.3.1.110,13.02,7]henicosa-1(19),2(7),3,5,10,13(21),16(20),17-octaene-14,3′-cyclopentane]-1′-yl]-1,1,1-trifluoro-methanesulfonamide]	–
0.34	97	CS(=O)(=O)N[C@H]1CC[C@@]2(Cc3ccc(F)c(c3)-c3ccccc3OCc3coc2n3)C1 [Example 45, N-[(1′S,14R)-19-fluorospiro[8,12-dioxa-21-azatetracyclo[14.3.1.110,13.02,7]henicosa-1(19),2,4,6,10,13(21),16(20),17-octaene-14,3′-cyclopentane]-1′-yl]methanesulfonamide]	–
2000	94	CS(=O)(=O)N[C@H]1CC[C@@]2(Cc3cc(ccn3)-c3ccccc3OCc3coc2n3)C1 [Example 49, N-[(1′S,14S)-spiro[8,12-dioxa-17,21-diazatetracyclo[14.3.1.110,13.02,7]henicosa-1(20),2,4,6,10,13(21),16,18-octaene-14,3′-cyclopentane]-1′-yl]methanesulfonamide]	–

Compound	EC50 [nM]	Emax [1] [%]	Emax (%) [1] [%]
N-[(3′R,14S)-6,17,19-trifluorospiro[8,12-dioxa-21-azatetracyclo[14.3.1.110,13.02,7]henicosa-1(19),2,4,6,10,13(21),16(20),17-octaene-1′,5′-tetrahydrofuran′-3′-yl]methanesulfonamide or N-[(3′S,14R)-6,17,19-trifluorospiro[8,12-dioxa-21-azatetracyclo[14.3.1.110,13.02,7]henicosa-1(19),2,4,6,10,13(21),16(20),17-octaene-1′,5′-tetrahydrofuran′-3′-yl]methanesulfonamide [Example 109]	1.6	–	99

Source: patent publication US12590106B2, “Spiromacrocyclic orexin 2 receptor agonists” (H. Lundbeck A/S, priority 2023, dated 2026)
